Assay results: PubChem BioAssay AID1963843 (Molecular Pharmacology Branch, DTP, NCI, 2024)

Test system: 616215-338-R-J1-PDC complex spheroid viability
Assay: Anticancer human tumor 616215-338-R-J1-PDC patient-derived colon adenocarcinoma cell line growth inhibition [POLQ]
Conditions: for IC50: curve of first compound; for viability, T/C: stronger effect = lower value
Procedure, shortened: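 PDC + HUVEC + MSC complex spheroids; POLQ inhibitors ± partner drugs; top conc. at/near clinical Cmax, else 10 microM (SN-38 1 microM), half-log dilutions; 37 degrees C, 5% CO2.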

[1] = second compound 0.0316 µM, first compound 0.0316 µM
[2] = second compound 0.0316 µM, first compound 0.1 µM
[3] = second compound 0.0316 µM, first compound 0.316 µM
[4] = second compound 0.0316 µM, first compound 1 µM
[5] = second compound 0.0316 µM, first compound 3.16 µM
[6] = second compound 0.0316 µM, first compound 10 µM
[7] = second compound 0.1 µM, first compound 0.0316 µM
[8] = second compound 0.1 µM, first compound 0.1 µM
[9] = second compound 0.1 µM, first compound 0.316 µM
[10] = second compound 0.1 µM, first compound 1 µM
[11] = second compound 0.1 µM, first compound 3.16 µM
[12] = second compound 0.1 µM, first compound 10 µM
[13] = second compound 0.316 µM, first compound 0.0316 µM
[14] = second compound 0.316 µM, first compound 0.1 µM
[15] = second compound 0.316 µM, first compound 0.316 µM
[16] = second compound 0.316 µM, first compound 1 µM
[17] = second compound 0.316 µM, first compound 3.16 µM
[18] = second compound 0.316 µM, first compound 10 µM
[19] = second compound 1 µM, first compound 0.0316 µM
[20] = second compound 1 µM, first compound 0.1 µM
[21] = second compound 1 µM, first compound 0.316 µM
[22] = second compound 1 µM, first compound 1 µM
[23] = second compound 1 µM, first compound 3.16 µM
[24] = second compound 1 µM, first compound 10 µM
[25] = second compound 3.16 µM, first compound 0.0316 µM
[26] = second compound 3.16 µM, first compound 0.1 µM
[27] = second compound 3.16 µM, first compound 0.316 µM
[28] = second compound 3.16 µM, first compound 1 µM
[29] = second compound 3.16 µM, first compound 3.16 µM
[30] = second compound 3.16 µM, first compound 10 µM
[31] = second compound 10 µM, first compound 0.0316 µM
[32] = second compound 10 µM, first compound 0.1 µM
[33] = second compound 10 µM, first compound 0.316 µM
[34] = second compound 10 µM, first compound 1 µM
[35] = second compound 10 µM, first compound 3.16 µM
[36] = second compound 10 µM, first compound 10 µM
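Further: spheroids exposed to compounds for one week before readout.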
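Wherever viability, T/C is given: percent viability relative to DMSO vehicle wells taken as 100%.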

`CC(=O)O[C@H]1C(=O)[C@@]2(C)[C@H]([C@H](OC(=O)c3ccccc3)[C@]3(O)C[C@H](OC(=O)[C@H](O)[C@@H](NC(=O)c4ccccc4)c4ccccc4)C(C)=C1C3(C)C)[C@]1(OC(C)=O)CO[C@@H]1C[C@@H]2O` + Nc1ccc(C#CCN(C(=O)Cc2ncc(C(F)(F)F)cc2C(F)(F)F)c2ccc(F)cc2)nn1 gave an IC50 (second compound 0.0316 µM) of less than 9.49 nM, an IC50 (second compound 0.1 µM) of less than 9.49 nM and an IC50 (second compound 0.316 µM) of less than 9.49 nM. It also gave an IC50 (second compound 1 µM) of less than 9.49 nM, an IC50 (second compound 3.16 µM) of less than 9.49 nM and an IC50 (second compound 10 µM) of less than 9.49 nM. It also gave a viability, T/C (second compound 0.0316 µM, first compound 0.00949 µM) of 38.1%, a viability, T/C (second compound 0.0316 µM, first compound 0.03 µM) of 25.5% and a viability, T/C (second compound 0.0316 µM, first compound 0.0949 µM) of 22.9%. The viability, T/C (second compound 0.0316 µM, first compound 0.3 µM) was 18.4%, the viability, T/C (second compound 0.0316 µM, first compound 0.949 µM) was 16.6% and the viability, T/C (second compound 0.0316 µM, first compound 3 µM) was 17.7%. It also gave a viability, T/C (second compound 0.1 µM, first compound 0.00949 µM) of 50%, a viability, T/C (second compound 0.1 µM, first compound 0.03 µM) of 24.6% and a viability, T/C (second compound 0.1 µM, first compound 0.0949 µM) of 21.3%. The viability, T/C (second compound 0.1 µM, first compound 0.3 µM) was 17.4%, the viability, T/C (second compound 0.1 µM, first compound 0.949 µM) was 17.6% and the viability, T/C (second compound 0.1 µM, first compound 3 µM) was 19%. It also gave a viability, T/C (second compound 0.316 µM, first compound 0.00949 µM) of 42.3%, a viability, T/C (second compound 0.316 µM, first compound 0.03 µM) of 22.4% and a viability, T/C (second compound 0.316 µM, first compound 0.0949 µM) of 20.9%. For the same molecule, the viability, T/C (second compound 0.316 µM, first compound 0.3 µM) was 19.1%, the viability, T/C (second compound 0.316 µM, first compound 0.949 µM) was 16.8% and the viability, T/C (second compound 0.316 µM, first compound 3 µM) was 14.8%. For the same molecule, the viability, T/C (second compound 1 µM, first compound 0.00949 µM) was 41.1%, the viability, T/C (second compound 1 µM, first compound 0.03 µM) was 25% and the viability, T/C (second compound 1 µM, first compound 0.0949 µM) was 24.1%. For the same molecule, the viability, T/C (second compound 1 µM, first compound 0.3 µM) was 26.1%, the viability, T/C (second compound 1 µM, first compound 0.949 µM) was 14% and the viability, T/C (second compound 1 µM, first compound 3 µM) was 16.6%. The viability, T/C (second compound 3.16 µM, first compound 0.00949 µM) was 30.2%, the viability, T/C (second compound 3.16 µM, first compound 0.03 µM) was 22.1% and the viability, T/C (second compound 3.16 µM, first compound 0.0949 µM) was 22.4%. For the same molecule, the viability, T/C (second compound 3.16 µM, first compound 0.3 µM) was 20.2%, the viability, T/C (second compound 3.16 µM, first compound 0.949 µM) was 16.5% and the viability, T/C (second compound 3.16 µM, first compound 3 µM) was 15.1%. The viability, T/C (second compound 10 µM, first compound 0.00949 µM) was 36.9%, the viability, T/C (second compound 10 µM, first compound 0.03 µM) was 25% and the viability, T/C (second compound 10 µM, first compound 0.0949 µM) was 23.3%. It also gave a viability, T/C (second compound 10 µM, first compound 0.3 µM) of 18.4%, a viability, T/C (second compound 10 µM, first compound 0.949 µM) of 18.1% and a viability, T/C (second compound 10 µM, first compound 3 µM) of 21.6%.
In the case of `COc1cc(C2c3cc4c(cc3C(OC3OC5COC(C)OC5C(O)C3O)C3COC(=O)C23)OCO4)cc(OC)c1O` (stereo unspecified) + Nc1ccc(C#CCN(C(=O)Cc2ncc(C(F)(F)F)cc2C(F)(F)F)c2ccc(F)cc2)nn1, the IC50 (second compound 0.0316 µM) is reported as 327 nM, the IC50 (second compound 0.1 µM) is reported as 812 nM and the IC50 (second compound 0.316 µM) is reported as 732 nM. The IC50 (second compound 1 µM) was 489 nM, the IC50 (second compound 3.16 µM) was 314 nM and the IC50 (second compound 10 µM) was 268 nM. It also gave a viability, T/C [1] of 106%, a viability, T/C [2] of 83.9% and a viability, T/C [3] of 46.2%. The viability, T/C [4] was 45.8%, the viability, T/C [5] was 41.9% and the viability, T/C [6] was 24.9%. The viability, T/C [7] was 107%, the viability, T/C [8] was 92.4% and the viability, T/C [9] was 57.6%. For the same molecule, the viability, T/C [10] was 51.3%, the viability, T/C [11] was 36.4% and the viability, T/C [12] was 27.7%. The viability, T/C [13] was 108%, the viability, T/C [14] was 87.8% and the viability, T/C [15] was 65.4%. For the same molecule, the viability, T/C [16] was 42.3%, the viability, T/C [17] was 35.9% and the viability, T/C [18] was 26.4%. For the same molecule, the viability, T/C [19] was 98.4%, the viability, T/C [20] was 86.3% and the viability, T/C [21] was 56.5%. It also gave a viability, T/C [22] of 37%, a viability, T/C [23] of 36% and a viability, T/C [24] of 24.8%. It also gave a viability, T/C [25] of 94.7%, a viability, T/C [26] of 67.5% and a viability, T/C [27] of 48.6%. For the same molecule, the viability, T/C [28] was 37.9%, the viability, T/C [29] was 38.3% and the viability, T/C [30] was 24.4%. It also gave a viability, T/C [31] of 83.4%, a viability, T/C [32] of 64% and a viability, T/C [33] of 49.8%. For the same molecule, the viability, T/C [34] was 34.3%, the viability, T/C [35] was 32.3% and the viability, T/C [36] was 30.9%.
In the case of `O=c1[nH]cc(F)c(=O)[nH]1` + Nc1ccc(C#CCN(C(=O)Cc2ncc(C(F)(F)F)cc2C(F)(F)F)c2ccc(F)cc2)nn1, the IC50 (second compound 0.0316 µM) is reported as 479 nM, the IC50 (second compound 0.1 µM) is reported as 509 nM and the IC50 (second compound 0.316 µM) is reported as 529 nM. For the same molecule, the IC50 (second compound 1 µM) was 529 nM, the IC50 (second compound 3.16 µM) was 278 nM and the IC50 (second compound 10 µM) was 437 nM. The viability, T/C [1] was 101%, the viability, T/C [2] was 82.2% and the viability, T/C [3] was 56.6%. For the same molecule, the viability, T/C [4] was 38.9%, the viability, T/C [5] was 35.9% and the viability, T/C [6] was 37.5%. It also gave a viability, T/C [7] of 93.3%, a viability, T/C [8] of 92.2% and a viability, T/C [9] of 53.7%. For the same molecule, the viability, T/C [10] was 43.5%, the viability, T/C [11] was 44.9% and the viability, T/C [12] was 45.6%. It also gave a viability, T/C [13] of 103%, a viability, T/C [14] of 77.6% and a viability, T/C [15] of 60.6%. For the same molecule, the viability, T/C [16] was 35.6%, the viability, T/C [17] was 42% and the viability, T/C [18] was 39.7%. The viability, T/C [19] was 97.5%, the viability, T/C [20] was 89.7% and the viability, T/C [21] was 57.5%. For the same molecule, the viability, T/C [22] was 40.7%, the viability, T/C [23] was 38.4% and the viability, T/C [24] was 39.7%. The viability, T/C [25] was 95.1%, the viability, T/C [26] was 90.5% and the viability, T/C [27] was 44.8%. The viability, T/C [28] was 41.6%, the viability, T/C [29] was 36.4% and the viability, T/C [30] was 37.5%. The viability, T/C [31] was 91.1%, the viability, T/C [32] was 75.7% and the viability, T/C [33] was 55.5%. For the same molecule, the viability, T/C [34] was 38.2%, the viability, T/C [35] was 35.7% and the viability, T/C [36] was 37.6%.
